Data published in patent US11780851B2, “LRRK2 inhibitors” (H. Lundbeck A/S, priority 2021, dated 2023).
Entries after “also recorded” stand apart in the source; their conditions may differ. Like-named read-outs stand apart in the source and are kept apart here.

How the values were obtained:
[1] = system: panel of 403 wild type kinases; assay: Broad kinase selectivity, Eurofins DiscoverX scanMAX panel; type: binding, primarily of human origin; conditions: screening concentration 100 nM; for Number of Hits: 403 non-mutant kinases
Procedure: Protein kinase profiling of the inhibitors (Fabian, M. A. et al. inhibitors. Nat. […] Selectivity Score or S-score is a quantitative measure of compound selectivity. It was calculated by dividing the number of kinases that compounds bind to by the total number of distinct kinases tested, excluding mutant variants. S=Number of hits/Number of assays. This value can be calculated using % Ctrl as a potency threshold (below) and provides a quantitative method of describing compound selectivity to facilitate comparison of different compounds.

[2] = Hepatocyte intrinsic clearance assay; type: in vitro ADME, human; conditions: human, pooled donor, cryopreserved hepatocytes, pH 7.4, 0.1 μM, 2 h at 37° C., 1×10^6 hepatocytes/mL; * measured on 3 separate occasions, ** on a single occasion
In short: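 Test compound at 0.1 μM final (0.05% organic) incubated 2 h at 37° C with shaking in supplemented Leibovitz L-15 medium (pH7.4), 1×10^6 hepatocytes/mL final. Samples taken 1–120 min, quenched in acetonitrile, analyzed by LC-MS/MS. CLint derived from slope of % remaining versus time.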

GSH adduct screening = type: in vitro ADME, human; conditions: 1 μM, 3 h at 37° C., HLM 0.5 mg/mL, NADPH, with and without GSH
Procedure: Test compounds (final concentration 1 μM, 0.25% organic) were incubated for 3 h at 37° C. in commercially sourced, pooled donor, human liver microsomes (HLM, final concentration 0.5 mg/mL) with and without addition of glutathione (GSH; final concentration […]). The metabolic reaction was initiated by addition of microsomal solution to the mixture of cofactor NADPH (final concentration 1 mM), test compound and GSH. After 3 h of incubation in a water bath at 37° C., the reaction was stopped by addition of 0.2% formic acid in acetonitrile, followed by mixing and centrifugation (16000 g for 5 minutes). Supernatant was diluted (1:1) with HPLC water then analyzed by liquid chromatography (LC)-quadrupole time-of-flight mass spectrometry (QTOF-MS). Accurate mass MS and MS/MS spectra from samples with GSH and without GSH, respectively, were compared to identify detectable GSH and/or cysteine related adducts.

[3] = Minipig B/P (brain disposition); type: in vivo, female Gottingen minipigs; conditions: female, Gottingen, mean ± stdev
Procedure: Brain disposition of Example 13 was evaluated in female Gottingen minipigs (n=3, body weight range 13-14 kg). […] At the end of infusion (2 h) the minipigs were sacrificed and terminal blood as well as brain samples were taken (n=3). Isolated plasma and brain homogenates were extracted by standard protein precipitation in acetonitrile, containing internal standard, followed by LC-MS/MS analysis using an optimized analytical method. Concentrations of test compound in plasma and brain were quantified against matrix matched calibration standards. The total plasma and brain concentration time data are presented in Table 6 alongside the calculated brain Kp (total brain concentration:total plasma concentration ratio).

[4] = Rat B/P (brain disposition); type: in vivo, male Sprague-Dawley rats; conditions: for concentration at 1 h / Kp at 1 h / Kp uu at 1 h: male, Sprague-Dawley, time point 1.0 h; for Kp at 1 h / Kp uu at 1 h: brain/plasma; for Kp at 1 h: n = 3; for Kp uu at 1 h: po
In short: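 Male Sprague-Dawley rats (n=3, standard body weight) were used to assess brain disposition. Plasma and brain homogenates underwent protein precipitation with acetonitrile containing internal standard, then LC-MS/MS measurement using an optimized method. Compound levels were quantified against matrix-matched calibration standards, and brain Kp was calculated as total brain concentration divided by total plasma concentration.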

[5] = Free fraction in plasma (equilibrium dialysis); type: in vitro ADME, male Sprague-Dawley rat; conditions: rat plasma, 1 μM, 5 h at 37° C.
In short: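 Equilibrium dialysis (12-14 kDa membrane) of male Sprague-Dawley rat or female Gottingen minipig plasma, or rat brain homogenate diluted 1:4, against 100 mM sodium phosphate pH 7.4, compound at 1 μM nominal (≤0.5% DMSO), 5 h at 37 °C. LC/MS-MS quantification; percent free calculated, with dilution factor 4 for brain.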

Selectivity Score ([1]; S(1): % Ctrl < 1): 0.002
Number of Hits ([1]; S(1): % Ctrl < 1, hit is LRRK2 WT): 1
Selectivity Score ([1]; S(10): % Ctrl < 10): 0.03
Number of Hits ([1]; S(10): % Ctrl < 10): 12
Selectivity Score ([1]; S(35): % Ctrl < 35): 0.094
Number of Hits ([1]; S(35): % Ctrl < 35): 38
CLint scaled at 0.1 μM [2]: 6 mL/min/kg
concentration at 2 h ([3]; brain, IV bolus 0.28 mg/kg + IV infusion 0.60 mg/kg, time point 2.00 h, n = 3, read-out: CTotal, brain): 151 ± 11 ng/mL
Kp at 2 h ([3]; intravenous, total brain:total plasma concentration ratio, time point 2.00 h, n = 3): 1.63 ± 0.08
concentration at 0.083 h ([3]; plasma, IV bolus 0.28 mg/kg + IV infusion 0.60 mg/kg, time point 0.083 h, n = 3, read-out: CTotal, plasma): 95 ± 18 ng/mL
concentration at 0.5 h ([3]; plasma, IV bolus 0.28 mg/kg + IV infusion 0.60 mg/kg, time point 0.50 h, n = 3, read-out: CTotal, plasma): 89 ± 20 ng/mL
concentration at 1 h ([3]; plasma, IV bolus 0.28 mg/kg + IV infusion 0.60 mg/kg, time point 1.00 h, n = 3, read-out: CTotal, plasma): 91 ± 9 ng/mL
concentration at 1.5 h ([3]; plasma, IV bolus 0.28 mg/kg + IV infusion 0.60 mg/kg, time point 1.50 h, n = 3, read-out: CTotal, plasma): 106 ± 13 ng/mL
concentration at 1.83 h ([3]; plasma, IV bolus 0.28 mg/kg + IV infusion 0.60 mg/kg, time point 1.83 h, n = 3, read-out: CTotal, plasma): 105 ± 8 ng/mL
concentration at 2 h ([3]; plasma, IV bolus 0.28 mg/kg + IV infusion 0.60 mg/kg, time point 2.00 h, n = 3, read-out: CTotal, plasma): 93 ± 11 ng/mL
extent of brain penetration, classified from rat brain Kp,uu values ([4]; Table 8, brain free fraction from brain slice model): moderately high brain penetrant
concentration at 1 h ([4]; brain, oral gavage 1 mg/kg, Table 8, read-out: Total brain concentration): 130 ± 27 ng/mL
concentration at 1 h ([4]; brain, oral gavage 1 mg/kg, mean ± stdev, n = 3, read-out: Total brain concentration): 130 ± 27 ng/g
concentration at 1 h ([4]; brain, oral gavage 3 mg/kg, Table 8, read-out: Total brain concentration): 597 ± 169 ng/mL
concentration at 1 h ([4]; brain, oral gavage 3 mg/kg, mean ± stdev, n = 3, read-out: Total brain concentration): 597 ± 169 ng/g
concentration at 1 h ([4]; brain, oral gavage 10 mg/kg, Table 8, read-out: Total brain concentration): 2030 ± 462 ng/mL
concentration at 1 h ([4]; brain, oral gavage 10 mg/kg, mean ± stdev, n = 3, read-out: Total brain concentration): 2030 ± 462 ng/g
Kp at 1 h ([4]; oral gavage 1 mg/kg, mean ± stdev): 1.76 ± 0.04
Kp at 1 h ([4]; oral gavage 3 mg/kg, mean ± stdev): 1.74 ± 0.1
Kp at 1 h ([4]; oral gavage 10 mg/kg, mean ± stdev): 1.3 ± 0.22
Kp uu at 1 h ([4]; 1 mg/kg, oral gavage 1 mg/kg, brain free fraction from rat brain slice model): 0.54 ± 0.01
Kp uu at 1 h ([4]; 1 mg/kg, oral gavage 1 mg/kg, fubrain from brain homogenate): 0.38 ± 0.01
Kp uu at 1 h ([4]; 3 mg/kg, oral gavage 3 mg/kg, brain free fraction from rat brain slice model): 0.54 ± 0.03
Kp uu at 1 h ([4]; 3 mg/kg, oral gavage 3 mg/kg, fubrain from brain homogenate): 0.38 ± 0.02
Kp uu at 1 h ([4]; 10 mg/kg, oral gavage 10 mg/kg, brain free fraction from rat brain slice model): 0.4 ± 0.07
Kp uu at 1 h ([4]; 10 mg/kg, oral gavage 10 mg/kg, fubrain from brain homogenate): 0.28 ± 0.05
concentration at 1 h ([4]; plasma, oral gavage 1 mg/kg, mean ± stdev, n = 3, read-out: Total plasma concentration): 74 ± 17 ng/mL
concentration at 1 h ([4]; plasma, oral gavage 3 mg/kg, mean ± stdev, n = 3, read-out: Total plasma concentration): 340 ± 78 ng/mL
concentration at 1 h ([4]; plasma, oral gavage 10 mg/kg, mean ± stdev, n = 3, read-out: Total plasma concentration): 1640 ± 655 ng/mL
fuplasma (% free) [5]: 32.0 % free
Structure (SMILES): [2H]C([2H])([2H])c1c2c(nn1C1CCOCC1)OCCCn1nc(Cl)c3cnc(nc31)N2 [Example 13, 8-Chloro-3-(methyl-d3)-2-(tetrahydro-2H-pyran-4-yl)-2,4,12,13-tetrahydro-11H-5,7-(azenometheno)dipyrazolo[3,4-b:5′,1′-g][1]oxa[4,6,8]triazacycloundecine]
Adduct detected in GSH supplemented HLMs (GSH adduct screening): did not form GSH adduct; also recorded: None detected
